The test system of one series is Haemonchus contortus L3. Nature of the series: Haemonchus contortus, Larvae Stage 3 (HcL3) In Vitro Assay.
In series [1] the target is T1, bovine vesicular acetylcholine transporter (VAChT) (Bos taurus, UniProt E1BK36).
T1 sequence (E1BK36 1-524): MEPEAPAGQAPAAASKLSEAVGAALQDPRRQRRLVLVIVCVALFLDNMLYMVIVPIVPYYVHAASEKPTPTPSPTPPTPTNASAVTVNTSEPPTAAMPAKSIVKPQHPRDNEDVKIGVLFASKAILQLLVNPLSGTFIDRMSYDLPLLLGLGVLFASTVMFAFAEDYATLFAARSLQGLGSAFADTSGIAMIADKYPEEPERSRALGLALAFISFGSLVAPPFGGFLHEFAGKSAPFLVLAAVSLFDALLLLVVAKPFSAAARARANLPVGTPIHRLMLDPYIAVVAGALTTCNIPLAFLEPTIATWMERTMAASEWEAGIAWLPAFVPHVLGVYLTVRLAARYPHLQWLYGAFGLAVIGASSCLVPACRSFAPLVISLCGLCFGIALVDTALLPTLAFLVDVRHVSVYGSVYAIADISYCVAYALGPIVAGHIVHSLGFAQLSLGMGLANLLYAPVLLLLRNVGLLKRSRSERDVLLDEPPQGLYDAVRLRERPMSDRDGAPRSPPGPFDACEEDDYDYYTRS
Description: Radioligand Binding Assay. The conditions noted are these: Bovine binding Ki, CHO-K1 membranes with recombinant bovine VAChT, [3H]Compound X6 0.3 nM.

For series [2], the system named is Dirofilaria immitis microfilariae. Description: Dirofilaria immitis, Microfilariae (DiMF) In Vitro Assay.
For another series, the system named is mammals. The conditions noted are these: Brittain et. al.; cited from earlier work.
A further series has as its target T2, vertebrate VAChT (Homo sapiens, UniProt Q16572).
T2 sequence (Q16572 1-532): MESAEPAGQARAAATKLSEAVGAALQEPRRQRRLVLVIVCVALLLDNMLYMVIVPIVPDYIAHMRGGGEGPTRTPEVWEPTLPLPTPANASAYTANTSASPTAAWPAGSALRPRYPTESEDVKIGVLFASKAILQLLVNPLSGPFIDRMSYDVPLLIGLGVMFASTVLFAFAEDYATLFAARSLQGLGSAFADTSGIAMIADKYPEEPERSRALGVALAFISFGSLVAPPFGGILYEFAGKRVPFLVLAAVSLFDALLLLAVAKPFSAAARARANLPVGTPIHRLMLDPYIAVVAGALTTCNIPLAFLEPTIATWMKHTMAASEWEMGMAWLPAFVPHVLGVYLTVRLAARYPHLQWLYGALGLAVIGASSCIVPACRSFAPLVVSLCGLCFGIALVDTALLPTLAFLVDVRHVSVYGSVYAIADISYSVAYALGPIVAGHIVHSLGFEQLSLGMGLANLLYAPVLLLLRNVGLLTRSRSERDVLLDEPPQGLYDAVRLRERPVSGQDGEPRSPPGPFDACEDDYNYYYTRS
The conditions noted are these: Khare et. al.; cited from earlier work.

Where [3] appears, read: Haemonchus contortus, 96 h, read-out: HcL3 MEC, Minimal Effective Concentration whereby worm motility is inhibited by approximately 70%, 37° C., tested 0.001-100 μM.
Where [4] appears, read: Dirofilaria immitis, 72 h, read-out: Di MF, MEC, decrease in microfilariae motility by visual assessment, curve starting at 100 μM.
Setting [5] is: Haemonchus contortus, 96 hours, 37° C., read-out: HcL3 MEC.
The mark [6] stands for this setting: Dirofilaria immitis, 72 hours, read-out: Di MF.

Structures are written as SMILES. Read-outs that look alike come from different tables or passages of the source.

The term Ki denotes the dissociation constant of the complex between target and ligand, obtained from inhibition or displacement.

On to `N#Cc1ccc(/C=C/CN2CCC3(CC2)CN(C(=O)NCc2ccnc(C(F)(F)F)c2)c2ccc(OC(F)(F)F)cc23)cc1` [Example 176, (E)-1′-(3-(4-cyanophenyl)allyl)-5-(trifluoromethoxy)-N-((2-(trifluoromethyl)pyridin-4-yl)methyl)spiro[indoline-3,4′-piperidine]-1-carboxamide], for which the minimal effective concentration in the series on Haemonchus contortus L3 (setting [3]) was determined as 33 µM; in series [2] (setting [4]), 3.3 µM. The Ki in series [1] stood at 288 nM.

Turning to `O=C(NCc1ccnc(C(F)(F)F)c1)N1CC2(CCN(C/C=C/c3ccc(C(F)(F)F)cc3)CC2)c2cc(OC(F)(F)F)ccc21` [Example 177, (E)-5-(trifluoromethoxy)-1′-(3-(4-(trifluoromethyl)phenyl)allyl)-N-((2-(trifluoromethyl)pyridin-4-yl)methyl)spiro[indoline-3,4′-piperidine]-1-carboxamide], the minimal effective concentration with Haemonchus contortus L3 (setting [3]) stood at 100 µM; in series [2] (setting [4]) it was 3.3 µM. Besides, the Ki in series [1] came out at 1670 nM.

In the case of `O=C(NCc1ccnc(C(F)(F)F)c1)N1CC2(CCN(C/C=C/c3ccc(OC(F)(F)F)cc3)CC2)c2cc(OC(F)(F)F)ccc21` [Example 178, (E)-5-(trifluoromethoxy)-1′-(3-(4-(trifluoromethoxy)phenyl)allyl)-N-((2-(trifluoromethyl)pyridin-4-yl)methyl)spiro[indoline-3,4′-piperidine]-1-carboxamide], the results for the minimal effective concentration (in the series on Haemonchus contortus L3 (setting [3]); in series [2] (setting [4])) were 100 µM and 3.3 µM, respectively. For the same compound, the Ki in series [1] was found to be 760 nM.

`O=C(NCc1ccnc(C(F)(F)F)c1)N1CC2(CCN(C/C=C/c3ccc(Cl)cc3)CC2)c2cc(OC(F)(F)F)ccc21` [Example 179, (E)-1′-(3-(4-chlorophenyl)allyl)-5-(trifluoromethoxy)-N-((2-(trifluoromethyl)pyridin-4-yl)methyl)spiro[indoline-3,4′-piperidine]-1-carboxamide]: the values for the minimal effective concentration (in the series with Haemonchus contortus L3 (setting [5]); in series [2] (setting [6])) were 7.6 µM and 3.3 µM, respectively. Also, in series [1], the Ki is 371 nM.

For the compound `O=C(NCc1ccnc(Cl)c1)N1CC2(CCN(C/C=C/c3ccc(OC(F)(F)F)cc3)CC2)c2cc(OC(F)(F)F)ccc21` [Example 180, (E)-N-((2-chloropyridin-4-yl)methyl)-5-(trifluoromethoxy)-1′-(3-(4-(trifluoromethoxy)phenyl)allyl)spiro[indoline-3,4′-piperidine]-1-carboxamide], the minimal effective concentration (in the series with Haemonchus contortus L3 (setting [3]); in series [2] (setting [4])) was 10 µM in each case. Moreover, the Ki in series [1] came to 437 nM.

Take `O=C(NCc1ccnc(Cl)c1)N1CC2(CCN(C/C=C/c3ccc(C(F)(F)F)cc3)CC2)c2cc(OC(F)(F)F)ccc21` [Example 181, (E)-N-((2-chloropyridin-4-yl)methyl)-5-(trifluoromethoxy)-1′-(3-(4-(trifluoromethyl)phenyl)allyl)spiro[indoline-3,4′-piperidine]-1-carboxamide]: the minimal effective concentration with Haemonchus contortus L3 (setting [3]) is 100 µM; in series [2] (setting [4]), 10 µM. Besides, the Ki in series [1] turned out to be 816 nM.

In the case of `O=C(NCc1ccnc(Cl)c1)N1CC2(CCN(C/C=C/c3ccc(C(F)(F)F)cn3)CC2)c2cc(OC(F)(F)F)ccc21` [Example 182, (E)-N-((2-chloropyridin-4-yl)methyl)-5-(trifluoromethoxy)-1′-(3-(5-(trifluoromethyl)pyridin-2-yl)allyl)spiro[indoline-3,4′-piperidine]-1-carboxamide], the minimal effective concentration (in the series on Haemonchus contortus L3 (setting [3]); in series [2] (setting [4])) was 10 µM in each case. Also, the Ki in series [1] stood at 1470 nM.

For the compound `COc1cc(CNC(=O)N2CC3(CCN(C/C=C/c4ccc(C(F)(F)F)cc4)CC3)c3cc(Cl)ccc32)ccn1` [Example 183, (E)-5-chloro-N-((2-methoxypyridin-4-yl)methyl)-1′-(3-(4-(trifluoromethyl)phenyl)allyl)spiro[indoline-3,4′-piperidine]-1-carboxamide], the minimal effective concentration with Haemonchus contortus L3 (setting [3]) was 10 µM; in series [2] (setting [4]), 3.3 µM. Further, in series [1], the inhibition constant Ki worked out at 184 nM.

Turning to `O=C(NCc1ccnc(F)c1)N1CC2(CCN(C/C=C/c3ccc(C(F)(F)F)cc3)CC2)c2cc(Cl)ccc21` [Example 184, (E)-5-chloro-N-((2-fluoropyridin-4-yl)methyl)-1′-(3-(4-(trifluoromethyl)phenyl)allyl)spiro[indoline-3,4′-piperidine]-1-carboxamide], the minimal effective concentration (in the series with Haemonchus contortus L3 (setting [3]); in series [2] (setting [4])) was 3.3 µM each time. In addition, the Ki in series [1] was 224 nM.

Consider `O=C(NCc1ccnc(Cl)c1)N1CC2(CCN(C/C=C/c3ccc(Cl)cc3)CC2)c2cc(OC(F)(F)F)ccc21` [Example 185, (E)-1′-(3-(4-chlorophenyl)allyl)-N-((2-chloropyridin-4-yl)methyl)-5-(trifluoromethoxy)spiro[indoline-3,4′-piperidine]-1-carboxamide], for which the minimal effective concentration amounted to 3.3 µM in the series on Haemonchus contortus L3 (Minimal Effective Concentration whereby worm motility is inhibited by approximately 70%, 96 hours, 37° C., tested 0.001-100 μM, read-out: HcL3 MEC) and 10.0 µM in series [2] (MEC, decrease in microfilariae motility by visual assessment, 72 hours, curve starting at 100 μM, read-out: Di MF). In addition, the Ki in series [1] was 283 nM.

In the case of `Cc1noc(C)c1-c1ccc2c(c1)C1(CCN(C/C=C/c3ccc(Cl)cc3)CC1)CN2C(=O)NCc1ccnc(-c2c(C)noc2C)c1` [Example 186, (E)-1′-(3-(4-chlorophenyl)allyl)-5-(3,5-dimethylisoxazol-4-yl)-N-((2-(3,5-dimethylisoxazol-4-yl)pyridin-4-yl)methyl)spiro[indoline-3,4′-piperidine]-1-carboxamide], the minimal effective concentration with Haemonchus contortus L3 (setting [3]) is 100 µM; in series [2] (setting [4]), 3.3 µM. Also, in series [1], the Ki amounted to 1360 nM.

Consider `Cc1noc(C)c1-c1ccc2c(c1)C1(CCN(C/C=C/c3ccc(Cl)cc3)CC1)CN2C(=O)NCc1ccnc(Cl)c1` [Example 187, (E)-1′-(3-(4-chlorophenyl)allyl)-N-((2-chloropyridin-4-yl)methyl)-5-(3,5-dimethylisoxazol-4-yl)spiro[indoline-3,4′-piperidine]-1-carboxamide], for which the minimal effective concentration worked out at 100 µM in the series on Haemonchus contortus L3 (setting [5]) and 3.3 µM in series [2] (setting [6]). The Ki in series [1] was determined as 2470 nM.

Regarding `O=C(NCc1cnc(Cl)s1)N1CC2(CCN(C/C=C/c3ccc(Cl)cc3)CC2)c2cc(OC(F)(F)F)ccc21` [Example 189, (E)-1′-(3-(4-chlorophenyl)allyl)-N-((2-chlorothiazol-5-yl)methyl)-5-(trifluoromethoxy)spiro[indoline-3,4′-piperidine]-1-carboxamide], the minimal effective concentration amounted to 100 µM with Haemonchus contortus L3 (setting [5]) and 14 µM in series [2] (setting [6]). The Ki in series [1] is 792 nM.

In the case of `OC1CCCCC1N1CCC(c2ccccc2)CC1` (centres unmarked) [Vesamicol, 2-(4-phenyl-piperidino)-cyclohexanol], in the series with mammals, the toxicity to mammals entry is on record as “highly toxic”. At vertebrate VAChT, the “binding affinity to vertebrate VAChT” value is given as “high affinity”.

Values taken from patent US20160296499A1, “Spiroindoline Antiparasitic Derivatives” (ZOETIS SERVICES LLC, priority 2013, published 2016).
